The structures appear in SMILES notation.

Here are results for 19 compounds from patent publication US9062041B2 (Bayer Intellectual Property GmbH, priority 2011, dated 2015).

Assay type in all cases: cell-based
One assay addresses T1, human PGD receptor (Homo sapiens, UniProt Q13258).
T1 sequence (Q13258 1-359): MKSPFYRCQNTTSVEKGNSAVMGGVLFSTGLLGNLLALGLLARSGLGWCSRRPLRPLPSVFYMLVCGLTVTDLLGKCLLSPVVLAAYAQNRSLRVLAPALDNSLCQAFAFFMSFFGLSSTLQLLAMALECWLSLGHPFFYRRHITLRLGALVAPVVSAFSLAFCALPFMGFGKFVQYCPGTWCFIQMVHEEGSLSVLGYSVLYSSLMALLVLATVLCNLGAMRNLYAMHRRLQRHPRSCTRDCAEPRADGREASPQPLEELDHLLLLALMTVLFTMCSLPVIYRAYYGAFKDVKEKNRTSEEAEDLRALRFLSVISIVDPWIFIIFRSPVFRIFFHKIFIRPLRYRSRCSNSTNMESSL
Kind of assay: cAMP antagonism test on the human prostaglandin D receptor (HTRF cAMP detection). As to conditions: selectivity towards hDP, IC50 measured by cAMP antagonism test. The procedure, abridged:
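Cells pre-mixed with cAMP-d2 were preincubated with compound (0.8 nM–16.5 μM) for 20 min at RT, then stimulated with 3× PGD2 solution (6 nM, in PBS-IBMX) for 30 min at RT. After lysis (20 min), HTRF read at 665/620 nm; antagonism seen as rise in FRET ratio.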

The target in assay [1] is EP2 subtype of the human PGE2 receptor (Homo sapiens, UniProt P43116). Kind of assay: cAMP antagonism test on the human EP2 receptor (HTRF cAMP detection). Conditions: hEP2 receptor, read-out: Antagonism hEP2 IC50. The procedure, abridged:
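Cells expressing human EP2 preincubated 20 min at RT with compound (0.8 nM–16.5 μM), then stimulated 60 min with PGE2 (3× solution 1.5 nM) in PBS-IBMX. After 20 min lysis, cAMP measured by competitive HTRF with cAMP-d2 and Eu cryptate anti-cAMP antibody (665/620 nm ratio).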

Assay [2] addresses EP4 subtype of the human PGE2 receptor (Homo sapiens, UniProt P35408). The experiment in a line: cAMP antagonism test on the human EP4 receptor (HTRF cAMP detection). Conditions: selectivity towards hEP4, IC50 measured by cAMP antagonism test. The procedure, abridged: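 Cells expressing human EP4 preincubated 20 min at RT with compound (0.8 nM–16.5 μM), then stimulated with PGE2 (0.3 nM in 3× solution, with IBMX) 60 min at RT. After lysis, cAMP measured by HTRF competition (665/620 nm ratio); antagonism seen as rise in FRET signal.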

EP2 subtype of the human PGE2 receptor, sequence (P43116 whole entry): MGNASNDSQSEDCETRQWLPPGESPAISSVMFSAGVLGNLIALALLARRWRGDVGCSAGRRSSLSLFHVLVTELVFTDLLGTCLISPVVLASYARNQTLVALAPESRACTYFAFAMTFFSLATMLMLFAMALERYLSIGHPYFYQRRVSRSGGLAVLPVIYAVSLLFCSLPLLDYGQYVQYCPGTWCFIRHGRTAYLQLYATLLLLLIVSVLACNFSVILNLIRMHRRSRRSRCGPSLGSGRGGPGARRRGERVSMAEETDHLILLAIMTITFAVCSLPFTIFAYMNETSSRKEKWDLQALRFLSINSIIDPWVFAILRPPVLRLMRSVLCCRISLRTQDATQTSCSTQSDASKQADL
EP4 subtype of the human PGE2 receptor, sequence (P35408 whole entry): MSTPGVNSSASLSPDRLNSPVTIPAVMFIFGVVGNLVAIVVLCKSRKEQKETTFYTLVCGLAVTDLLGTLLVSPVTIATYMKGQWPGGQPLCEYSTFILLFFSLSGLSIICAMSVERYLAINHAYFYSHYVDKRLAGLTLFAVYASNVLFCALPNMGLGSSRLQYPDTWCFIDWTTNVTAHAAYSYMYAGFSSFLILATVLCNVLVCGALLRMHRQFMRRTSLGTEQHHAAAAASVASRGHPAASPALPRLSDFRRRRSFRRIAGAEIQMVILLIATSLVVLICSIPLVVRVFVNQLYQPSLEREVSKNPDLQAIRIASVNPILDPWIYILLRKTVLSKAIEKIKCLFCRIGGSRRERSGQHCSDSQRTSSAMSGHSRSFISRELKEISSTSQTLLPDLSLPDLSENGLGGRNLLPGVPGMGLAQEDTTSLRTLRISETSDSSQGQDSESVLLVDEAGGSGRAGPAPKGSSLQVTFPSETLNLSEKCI

In the case of `COCCNC(=O)c1ccc2nn(CC3CCN(C(=O)c4ccc(OC(F)F)cc4F)CC3)cc2c1C` [Example 40, 2-({1-[4-(difluoro-methoxy)-2-fluoro-benzoyl]piperidin-4-yl}methyl)-N-(2-methoxyethyl)-4-methyl-2H-indazol-5-carboxamide], the “Selectivity hEP2/hDP” value at human PGD receptor is on record as “xxx (xxx > 100)”. The IC50 in assay [1] turned out to be 11.5 nM. Besides, the “Selectivity hEP2/hEP4” value in assay [2] is “xxx (xxx > 100)”.

Consider `Cc1c(C(=O)NCCOC(F)(F)F)ccc2nn(CC3CCN(C(=O)c4ccc(-c5ccc(F)cc5)cc4)CC3)cc12` [Example 109, 2-({1-[(4′-fluoro-biphenyl-4-yl)-carbonyl]piperidin-4-yl}-methyl)-4-methyl-N-[2-(trifluoro-methoxy)ethyl]-2H-indazol-5-carboxamide], for which the “Selectivity hEP2/hDP” value on human PGD receptor is “xxx (xxx > 100)”. Further, the IC50 in assay [1] was determined as 9.53 nM. The “Selectivity hEP2/hEP4” value in assay [2] is given as “xxx (xxx > 100)”.

With `Cc1c(C(=O)NCCOC(F)(F)F)ccc2nn(CC3CCN(C(=O)c4ccc(Oc5ccc(F)cc5)cc4)CC3)cc12` [Example 108, 2-({1-[4-(4-fluoro-phenoxy)benzoyl]-piperidin-4-yl}methyl)-4-methyl-N-[2-(tri-fluoromethoxy)ethyl]-2H-indazol-5-carboxamide], the “Selectivity hEP2/hDP” value on human PGD receptor is recorded as “xxx (xxx > 100)”. In assay [1], the IC50 was found to be 6.46 nM. Besides, the “Selectivity hEP2/hEP4” value in assay [2] was “xxx (xxx > 100)”.

Regarding `COCCNC(=O)c1ccc2nn(CC3CCN(C(=O)c4ccc(Oc5ccccn5)cc4)CC3)cc2c1C` [Example 346, N-(2-methoxyethyl)-4-methyl-2-({1-[4-(2-pyridyloxy)benzoyl]piperidin-4-yl}-methyl)-2H-indazol-5-carboxamide], on human PGD receptor, the “Selectivity hEP2/hDP” value is “xxx (xxx > 100)”. The IC50 in assay [1] is 14.9 nM. For the same compound, the “Selectivity hEP2/hEP4” value in assay [2] is on record as “xxx (xxx > 100)”.

Take `Cc1c(C(=O)NCC(F)(F)F)ccc2nn(CC3CCN(C(=O)c4ccc(N5CCOCC5)cc4)CC3)cc12` [Example 287, 4-methyl-2-{[1-(4-morpholinobenzoyl)piperidin-4-yl]methyl}-N-(2,2,2-trifluoro-ethyl)-2H-indazol-5-carboxamide]: on human PGD receptor, the “Selectivity hEP2/hDP” value is “xx (xx: 10-100)”. Moreover, the IC50 in assay [1] was found to be 1050 nM. Moreover, the “Selectivity hEP2/hEP4” value in assay [2] is recorded as “xx (xx: 10-100)”.

Consider `Cc1c(C(=O)NCCC#N)ccc2nn(CC3CCN(C(=O)c4ccc(Oc5ccc(C(F)(F)F)cc5)cc4)CC3)cc12` [Example 246, N-(2-cyanoethyl)-4-methyl-2-[(1-{4-[4-(trifluoromethyl)phenoxy]benzoyl}piperidin-4-yl)methyl]-2H-indazol-5-carboxamide], for which the “Selectivity hEP2/hDP” value at human PGD receptor was “xxx (xxx > 100)”. Moreover, the IC50 in assay [1] is 9.23 nM. In addition, the “Selectivity hEP2/hEP4” value in assay [2] was “xxx (xxx > 100)”.

Turning to `COCCNC(=O)c1ccc2nn(CC3CCN(C(=O)c4ccc(Oc5ccc(Cl)cn5)cc4)CC3)cc2c1C` [Example 357, 2-[(1-{4-[(5-chloropyridin-2-yl)oxy]benzoyl}piperidin-4-yl)methyl]-N-(2-methoxyethyl)-4-methyl-2H-indazol-5-carboxamide], the “Selectivity hEP2/hDP” value on human PGD receptor is on record as “xxx (xxx > 100)”. In addition, the IC50 in assay [1] was 7.36 nM. In addition, the “Selectivity hEP2/hEP4” value in assay [2] is “xxx (xxx > 100)”.

With `COCCNC(=O)c1ccc2nn(CC3CCN(C(=O)c4ccc(Oc5ccccc5)cc4)CC3)cc2c1C` [Example 19, N-(2-methoxyethyl)-4-methyl-2-{[1-(4-phenoxybenzoyl)-piperidin-4-yl]-methyl}-2H-indazol-5-carboxamide], the “Selectivity hEP2/hDP” value at human PGD receptor is given as “xxx (xxx > 100)”. Moreover, the IC50 in assay [1] came out at 8.57 nM. The “Selectivity hEP2/hEP4” value in assay [2] is on record as “xxx (xxx > 100)”.

With `Cc1c(C(=O)NCCC#N)ccc2nn(CC3CCN(C(=O)c4ccc(-c5ccc(F)cc5)cc4)CC3)cc12` [Example 407, N-(2-cyanoethyl)-2-({1-[(4′-fluorobiphenyl-4-yl)carbonyl]piperidin-4-yl}-methyl)-4-methyl-2H-indazol-5-carboxamide], the “Selectivity hEP2/hDP” value on human PGD receptor is listed as “xxx (xxx > 100)”. Also, the 50% inhibitory concentration (IC50) in assay [1] turned out to be 11.6 nM. In addition, the “Selectivity hEP2/hEP4” value in assay [2] is “xxx (xxx > 100)”.

Turning to `COCCNC(=O)c1ccc2nn(CC3CCN(C(=O)c4ccc(Cl)c(C(F)(F)F)c4)CC3)cc2c1OC` [Example 270, 2-({1-[4-chloro-3-(trifluoromethyl)benzoyl]piperidin-4-yl}methyl)-4-methoxy-N-(2-methoxyethyl)-2H-indazol-5-carboxamide], the “Selectivity hEP2/hDP” value at human PGD receptor is reported as “xxx (xxx > 100)”. The IC50 in assay [1] came to 53.1 nM. The “Selectivity hEP2/hEP4” value in assay [2] is on record as “xxx (xxx > 100)”.

For `COCCNC(=O)c1cc2cn(CC3CN(C(=O)c4ccc(C(F)(F)F)c(F)c4)C3)nc2cc1C` [Example 184, 2-({1-[3-fluoro-4-(trifluoromethyl)benzoyl]azetidin-3-yl}methyl)-N-(2-methoxy-ethyl)-6-methyl-2H-indazol-5-carboxamide], the “Selectivity hEP2/hDP” value on human PGD receptor was “xxx (xxx > 100)”. In addition, the IC50 in assay [1] is 76.8 nM. Besides, the “Selectivity hEP2/hEP4” value in assay [2] is “xxx (xxx > 100)”.

Regarding `COc1c(C(=O)NCCN2CCOCC2)ccc2nn(CC3CCN(C(=O)c4ccc(Cl)cc4)CC3)cc12` [Example 261, 2-{[1-(4-chlorobenzoyl)piperidin-4-yl]methyl}-4-methoxy-N-(2-morpholinoethyl)-2H-indazol-5-carboxamide], the “Selectivity hEP2/hDP” value at human PGD receptor is “xxx (xxx > 100)”. For the same compound, the 50% inhibitory concentration (IC50) in assay [1] was determined as 81 nM. Further, the “Selectivity hEP2/hEP4” value in assay [2] is “xxx (xxx > 100)”.

With `Cc1c(C(=O)NCCOCC(F)(F)F)ccc2nn(CC3CCN(C(=O)c4ccc(Cl)cc4)CC3)cc12` [Example 90, 2-{[1-(4-chlorobenzoyl)piperidin-4-yl]methyl}-4-methyl-N-[2-(2,2,2-trifluoro-ethoxy)ethyl]-2H-indazol-5-carboxamide], on human PGD receptor, the “Selectivity hEP2/hDP” value is reported as “xxx (xxx > 100)”. In assay [1], the half-maximal inhibitory concentration (IC50) worked out at 14.8 nM. Besides, the “Selectivity hEP2/hEP4” value in assay [2] is “xxx (xxx > 100)”.

As for `COCCNC(=O)c1ccc2nn(CC3CCN(C(=O)c4ccc(-c5ccc(OC)cc5)cc4F)CC3)cc2c1C` [Example 43, 2-({1-[(3-fluoro-4′-methoxybiphenyl-4-yl)carbonyl]piperidin-4-yl}methyl)-N-(2-methoxyethyl)-4-methyl-2H-indazol-5-carboxamide], the “Selectivity hEP2/hDP” value at human PGD receptor is given as “xxx (xxx > 100)”. Moreover, the IC50 in assay [1] turned out to be 4.82 nM. The “Selectivity hEP2/hEP4” value in assay [2] is given as “xxx (xxx > 100)”.

`Cc1c(C(=O)NCC2CCCCO2)ccc2nn(CC3CCN(C(=O)c4ccc(Cl)cc4)CC3)cc12` (racemic) [Example 239, (+/−)-2-{[1-(4-chlorobenzoyl)piperidin-4-yl]methyl}-4-methyl-N-(3,4,5,6-tetrahydro-2H-pyran-2-ylmethyl)-2H-indazol-5-carboxamide]: the “Selectivity hEP2/hDP” value at human PGD receptor is on record as “xxx (xxx > 100)”. Besides, in assay [1], the IC50 amounted to 27 nM. In assay [2], the “Selectivity hEP2/hEP4” value is on record as “xxx (xxx > 100)”.

In the case of `COCCNC(=O)c1ccc2nn(CC3CCN(C(=O)c4ccc(-c5ccc(OC)cc5C)cc4)CC3)cc2c1C` [Example 370, N-(2-methoxyethyl)-2-({1-[(4′-methoxy-2′-methylbiphenyl-4-yl)carbonyl]-piperidin-4-yl}methyl)-4-methyl-2H-indazol-5-carboxamide], the “Selectivity hEP2/hDP” value at human PGD receptor is listed as “xxx (xxx > 100)”. In assay [1], the IC50 came to 3.07 nM. The “Selectivity hEP2/hEP4” value in assay [2] is recorded as “xxx (xxx > 100)”.

With `Cc1c(C(=O)NCC(F)(F)F)ccc2nn(CC3CN(C(=O)c4ccc(Oc5ccc(Cl)cc5)cc4)C3)cc12` [Example 165, 2-({1-[4-(4-chlorophenoxy)benzoyl]azetidin-3-yl}methyl)-4-methyl-N-(2,2,2-trifluoroethyl)-2H-indazol-5-carboxamide], the “Selectivity hEP2/hDP” value at human PGD receptor is reported as “xxx (xxx > 100)”. Besides, the IC50 in assay [1] was 33.4 nM. In addition, the “Selectivity hEP2/hEP4” value in assay [2] is “xxx (xxx > 100)”.

Consider `COCCNC(=O)c1ccc2nn(CC3CN(C(=O)c4ccc(C5CC5)cc4)C3)cc2c1C` [Example 124, 2-{[1-(4-cyclopropylbenzoyl)azetidin-3-yl]methyl}-N-(2-methoxyethyl)-4-methyl-2H-indazol-5-carboxamide], for which the “Selectivity hEP2/hDP” value at human PGD receptor is “xxx (xxx > 100)”. Also, the IC50 in assay [1] was found to be 7.99 nM. The “Selectivity hEP2/hEP4” value in assay [2] is listed as “xxx (xxx > 100)”.

As for `COCCNC(=O)c1ccc2nn(CC3CCN(C(=O)c4cn(C)c5ccccc45)CC3)cc2c1OC` [Example 273, 4-methoxy-N-(2-methoxyethyl)-2-({1-[(1-methyl-1H-indol-3-yl)carbonyl]-piperidin-4-yl}methyl)-2H-indazol-5-carboxamide], the “Selectivity hEP2/hDP” value on human PGD receptor is “xxx (xxx > 100)”. The IC50 in assay [1] was 18.5 nM. The “Selectivity hEP2/hEP4” value in assay [2] was “xxx (xxx > 100)”.
